Results from patent US20230137491A1, “PEPTIDES AND USES THEREOF” (SINTICA BIOTECH SOCIETÀ A RESPONSABILITÀ LIMITATA …, priority 2020, published 2023).
Non-standard residues stand in square brackets, D forms with d. methoxy‑PEG 20 kDa = linear 20 kDa methoxy-PEG conjugated through D-Cys sulfur

Legend:
CD271 = molecular target: T1, CD271 (Homo sapiens, UniProt P08138); test: Immunoprecipitation of melanoma cell lysates with the peptide, blotted against CD271; assay type: binding; settings: protein extracts of WM266-4 and 1205Lu melanoma cell lines
T1 construct: total protein lysates of WM266-4 and Lu1205 melanoma cell lines were immunoprecipitated with the peptide conjugated to sepharose beads; endogenous in cells; host or cells: WM266-4 and 1205Lu melanoma cell lines (ATCC)
T1 sequence (P08138 29-427): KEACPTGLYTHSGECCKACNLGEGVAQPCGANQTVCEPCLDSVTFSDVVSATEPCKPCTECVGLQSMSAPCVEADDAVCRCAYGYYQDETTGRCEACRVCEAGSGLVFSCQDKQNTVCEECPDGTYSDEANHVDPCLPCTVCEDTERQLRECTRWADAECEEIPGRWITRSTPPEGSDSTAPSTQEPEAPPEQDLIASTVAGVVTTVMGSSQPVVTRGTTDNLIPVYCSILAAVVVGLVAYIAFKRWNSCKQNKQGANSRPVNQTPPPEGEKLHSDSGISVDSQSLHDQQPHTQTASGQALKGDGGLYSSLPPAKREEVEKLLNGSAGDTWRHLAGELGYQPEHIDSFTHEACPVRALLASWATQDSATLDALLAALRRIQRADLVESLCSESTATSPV
Protocol: FIG. 1. […] Protein extracts from two melanoma cell lines were immunoprecipitated with the Pegylated form of the peptide (XYZ) and blotted against CD271. The sepharose beads-protein lysates (without CD271) is used as negative control, while no-immunoprecipitated protein lysate from WM266-4 is used as positive control.
1205Lu and WM266-4 melanoma cell lines were treated with or without XYZ. 24 h later cells were harvested with RIPA buffer (10 mM Tris, pH 8.0; 150 mM NaCl; 1% Nonidet P-40, 0.5% deoxycholate; 0.1% SDS) containing protease inhibitors. Nuclei were removed by centrifugation (11,000 rpm for 3 min). Monoclonal antibody anti-p75NTR (Upstate) was bound to sepharose beads lh at 4° C. under rotation. Then, pre-cleared lysates were conjugated to sepharose beads-antibody complex or to sepharose beads alone as negative control, overnight at 4° C. under rotation. Immunocomplexes were washed with Port Buffer (10 mM Tris-HCl, pH 8.5; 150 mM NaCl; 0.1% Renex 30; 0.01% BSA; 2.5% NaN3) six times and with PT Buffer (10 mM Tris-HCl, pH 8.5; 150 mM NaCl; 0.5% Tween 20; 2.5% NaN3) three times. Samples were eluted with 1× Laemnli sample buffer for […] at 90° C. and Western Blotting for p75NTR was performed.
Immunocomplexes were washed with Port Buffer and with PT Buffer, then eluted with Laemnli sample buffer for 5′ at 90° C. […]

[1] = test system: primary and metastatic melanoma cell lines; test: Trypan blue viable cell counting in relation to CD271 levels by flow cytometry; assay type: cell-based, human; settings: five primary and metastatic melanoma cell lines
Protocol: FIG. 4. The peptide-induced cell death correlates with CD271 expression levels in melanoma cell lines. Five primary and metastatic melanoma cell lines were cultured and viability measured by Trypan blue staining solution. Flow cytometry was used to evaluate the expression level of CD271 receptor. Because CD271 mediates apoptosis in many cell systems, we analysed the effect of XYZ in melanoma cell lines in relation to the levels of the receptor. After treatment, melanoma cell lines were harvested and incubated with Trypan Blue staining solution or incubated with CD271 antibody for flow cytometer analysis.

[2] = test system: WM266-4 melanoma cell line; test: Cell death analysis by flow cytometry (propidium iodide, sub-G1); assay type: cell-based, human; settings: WM266-4, 24 h and 48 h, versus diluent
Protocol: (§1) FIG. 5. […] WM266-4 melanoma cell line was cultured and the rate of apoptosis measured after treatment with the peptide (XYZ) as compared to diluent at different time points by flow cytometry (A) counting % of cells in sub-G1 with propidium iodide staining or (B) counting % of Annexin positive cells staining. Student's t-test was used for comparison of the means
WM266-4 cell line was treated with the peptide (XYZ) or diluent at different time points. After 24 and 48 h, cells were trypsinised and resuspended in hypotonic fluorochrome solution: 50 μg/ml propidium iodide containing 0.1% sodium citrate and 0.5% Triton X-100 (Sigma Aldrich, Milano, Italy). After 15 min, cells were analyzed using an Epics XL flow cytometer (Coulter Electronics Inc., Hialeah, Fla., USA). Apoptosis was detected by evaluating the reduced fluorescence of the DNA-binding dye PI in the apoptotic nuclei.
(§2) In particular, XYZ triggers melanoma apoptosis, a most well-known type of programmed cell death in culture. […] In details, melanoma cell lines, gently were trypsinised and washed once with serum-containing media before incubation with annexin V-FITC or with propidium iodide. 24 h and 48 h later, FITC signal detector or sub G0/G1 peak for annexin or PI staining respectively, were observed by flow cytometry.

[3] = test system: WM266-4 melanoma cell line; test: Annexin V staining by flow cytometry; assay type: cell-based, human; settings: WM266-4, 24 h and 48 h, versus diluent
Protocol: as §1
WM266-4 cell line was treated with the peptide (XYZ) or diluent at different time points. After 24 and 48 h, cells were trypsinised, collected by centrifugation and resuspended in 500 μL of binding buffer containing annexin V-FITC and propidium iodide (PI). After incubation at room temperature for 5 min in the dark, annexin V-FITC binding was analyzed by flow cytometry using FITC signal detector and PI staining by the phycoerythrin emission signal detector.
as §2

CD1 mice = test: Acute toxicity testing (up and down procedure); assay type: in vivo; settings: six CD1 mice, intravenous, 17.5 mg/kg to 1750 mg/kg, up to six days
Protocol: FIG. 10. No toxic effects in 6 mice treated with XYZ. Acute toxicity testing was performed in CD1 mice with different doses of XYZ up to six days after treatment. After one day of fasting, six mice were injected intravenously (28 G needle) through the tail vein with a total dose of 17.5, 175, 550 or 1750 mg/kg/mouse of XYZ in a physiological solution. 50 gr of food were available two hours later. The health status (coat and appearance) of mice was observed from the first day after treatment. (a) Mice were weighed prior to XYZ injection and then every day until the sixth day. The amount of ingested food (b) and drinking water (c) were measured.
Intravenous injections were performed in six CD1 mice (Charles River, Calco (MI) Italy) tails for administration from 17.5 mg/kg to 1750 mg/kg XYZ (FIG. 10).

Ac-DMet-DLeu-Gly-DIle-DIle-DAla-Gly-DLys-DAsn-DSer-Gly-DCys-NH2 with a linear 20 kDa methoxy-PEG polymer conjugated to the D-Cys residue through the sulfur atom of the latter (Ac-[dM][dL]G[dI][dI][dA]G[dK][dN][dS]G[dC](methoxy‑PEG 20 kDa)-NH2) [XYZ]
binding to CD271 (immunoprecipitation, blot against CD271) (CD271): immunoprecipitate with CD271 | cell death versus CD271 expression level (Trypan blue viable cell counting, flow cytometry) [1]: more efficacious in cell lines expressing higher levels of CD271 | rate of apoptosis (propidium iodide, subG1 analysis) [2]: significantly higher rate of apoptosis than diluent alone | rate of apoptosis (Annexin staining) [3]: significantly higher rate of apoptosis than diluent alone | acute toxic effect (appearance, weight, water and food intake) (CD1 mice): did not show any acute toxic effect
